Publication PMC6669608, “Evaluation of Oxasqualenoids from the Red Alga Laurencia viridis against Acanthamoeba” (Marine Drugs, 2019)

Legend:
[1] = tested on: Acanthamoeba griffini trophozoites; experiment: In vitro activity against trophozoites of clinical strain A. griffini; format: cell-based, genotype T3; details: trophozoite stage
Description: (§1) Subsequently, DT was tested against two clinical isolates, A. griffini, genotype T3 obtained in a previous study and A. polyphaga genotype T4 ATCC 30461. Those strains were grown axenically in the same medium as A. castellanii Neff.
(§2) The in vitro activities of the different compounds of Laurencia were evaluated using a previously developed colorimetric assay based on the alamarBlue™ Cell Viability Reagent assay (Life Technologies, Barcelona, Spain). Briefly, 50 µL of 5 × 10⁴ trophozoites/mL were seeded onto a 96-well microtiter plate. After 15 min, the adherence of the cells to the plate bottom was confirmed by the use of the inverted microscope Leica DMIL (Leica, Wetzlar, Germany). Furthermore, 50 µL of serial dilutions of each compound was added to the 96-well microtiter plate. Finally, alamarBlue™ was placed into each well at 10% of the final volume and incubated at 26 °C with slight agitation. After 96 h, the fluorescence was measured with EnSpire Multimode Plate Reader (Perkin Elmer, Madrid, Spain) at a wavelength of 570/585 nm. The inhibitory concentration to inhibit the growth of 50% of the parasites (IC50) was calculated through nonlinear regression analysis with 95% confidence limits using the software Sigma Plot 12.0 (Systat Software Inc., London, UK). The experiments were performed three times each, allowing for standard deviation.

[2] = tested on: Acanthamoeba polyphaga trophozoites; experiment: In vitro activity against trophozoites of clinical strain A. polyphaga; format: cell-based, Acanthamoeba polyphaga genotype T4 ATCC 30461; details: trophozoite stage
Description: as §1, §2

[3] = tested on: A. castellanii; experiment: Measurement of ATP levels (CellTiter-Glo); format: cell-based, Acanthamoeba castellanii; details: IC90, 24 h
Description: The ATP level was measured using a Cell Titer-Glo® Luminescent Cell Viability Assay (Promega, Alcobendas, Madrid). This required adding a single reagent (CellTiter-Glo® Reagent, Promega, Alcobendas, Madrid), which relies on the properties of a proprietary thermostable luciferase, generating a stable proportional luminescent signal to the amount of ATP present, which is directly proportional to the number of cells present in culture. After incubation, treated amoebas were mixed with the kit reagent into a white-wall 96-well microtiter plate (Nunc; Thermo Fisher Scientific Inc., Waltham, MA, USA) following the manufacturer’s instructions for measurement of the luminescence on a PerkinElmer spectrophotometer. The effect of the drug on the ATP production was evaluated by incubating 10^5 cells/mL with the previously calculated IC90 of DT following the manufacturer´s recommendations. As a negative control, an A. castellanii culture incubated with PYG medium was used.

[4] = tested on: A. castellanii Neff; experiment: Analysis of mitochondrial membrane potential (JC-1); format: cell-based, Acanthamoeba castellanii Neff; details: IC90, 24 h
Description: Collapse of the electrochemical gradient across the mitochondrial membrane during apoptosis was detected with the JC-1 mitochondrial membrane potential detection kit (Cell Technology, Fremont, CA, USA). After being treated with IC90 of the test compound for 24 h, the cells were centrifuged (1000 rpm × 10 min) and resuspended in JC-1 buffer. Images were taken on an EVOS FL Cell Imaging System AMF4300 (Life Technologies, San Francisco, CA, USA) from Life Technologies (Madrid, Spain). The staining pattern allows the identification of two groups in a cellular population: live cells will show only red fluorescence; cells with low mitochondrial potential, (undergoing PCD) will show a higher level of green and red fluorescence.

C=C(CC[C@H](O)[C@@]1(C)CC[C@H](C(C)(C)O)O1)[C@H]1CC[C@H]2O[C@@H]([C@]3(C)CC[C@@H](Br)C(C)(C)O3)CC[C@]2(C)O1 [Compound 1, dehydrothyrsiferol]
IC50 [1]: 56.7 ± 2.09 µM | IC50 [2]: 73.4 ± 4.02 µM | ATP level maintained after treatment [3]: 19.52% | decrease in the total ATP level in comparison to the negative control [3]: 80.48% | mitochondrial membrane potential (JC-1) [4]: mitochondrial membrane potential collapsed
